# Measurements: patent US4128666A, “4 AND 5-Halo substituted 2-indanamine compounds” (SmithKline Corporation, priority 1977, dated 1978)
# pKi: −log10 of the molar value.
# Key:
# [1] = target: phenylethanolamine N-methyltransferase; test: inhibition of phenylethanolamine N-methyltransferase in vitro; type: biochemical; conditions: for pKi: enzyme inhibition dissociation constant, calculated according to Chou
# Experimental: Chem. Path. Pharm. 17:201-213, 1977, at various compound concentrations. From the data received, the enzyme inhibition dissociation constants (Ki values) were calculated according to mathematical procedures described by Chou, Mol. Pharm. 10:235-247, 1974.
# The Ki value of a preferred compound of this invention, 4,5-dichloro-2-indanamine, was compared with other closely related compounds.
# [2] = tested on: adrenal epinephrine/norepinephrine ratio; test: in vivo adrenal epinephrine/norepinephrine ratio in mice (PNMT inhibition); conditions: for E/NE Ratio: male mice, 50 mg/kg p.o. daily dose, seven days, n = 5
# Experimental: Male mice were dosed orally with either drug or vehicle control on a twice-a-day basis for seven consecutive days.
# On the morning of the next day they were again dosed with two hours later sacrificed by decapitation. The adrenal glands were then removed and analyzed fluorometrically for both epinephrine and norepinephrine content.
# [3] = Experiment 1, control 2.6 ± .1, ^b (SK & F 82566) significantly different from control, p <.001
SMILES,pKi [1],"E/NE Ratio ([2]; Experiment 2, control 2.0 ± .05)",potency of inhibition (in words) ([1]; compared with the other compounds of Table I),"E/NE Ratio [2, 3]","lowering of adrenal epinephrine/norepinephrine ratio (in words) ([2]; only this compound, under the conditions of this study)"
NC1CCc2c1ccc(Cl)c2Cl (centres unmarked) [SK & F 82520],6.40,1.8,,,
"NC1Cc2ccc(Cl)c(Cl)c2C1 (centres unmarked) [SK & F 82566, 4,5-dichloro-2-indanamine]",7.70,,much more potent inhibitor than the other compounds,1.1,significantly lowered the adrenal epinephrine/norepinephrine ratio
NC1Cc2ccccc2C1 [SK & F 8851],5.00,,,2.4,
NC1Cc2cc(Cl)c(Cl)cc2C1 [SK & F 50070],6.00,,,2.2,
NC1CCc2ccc(Cl)c(Cl)c21 (centres unmarked) [SK & F 82570],< 6.00,,,,
